Laboratory results taken from ChEMBL document CHEMBL1135719, “Structural basis of RasGRP binding to high-affinity PKC ligands” (J Med Chem, 2002).

Tests used:
[1] = molecular target: Protein kinase C delta type (Mus musculus, UniProt P28867); assay: Displacement of [3H]- PDBu from Protein kinase C delta C1b domain
[2] = molecular target: T1, RAS guanyl-releasing protein 1 (Rattus norvegicus, UniProt Q9R1K8); assay: Binding affinity against RAS guanyl releasing protein using [3H]- PDBu as the labeled ligand
T1 sequence (Q9R1K8 whole entry): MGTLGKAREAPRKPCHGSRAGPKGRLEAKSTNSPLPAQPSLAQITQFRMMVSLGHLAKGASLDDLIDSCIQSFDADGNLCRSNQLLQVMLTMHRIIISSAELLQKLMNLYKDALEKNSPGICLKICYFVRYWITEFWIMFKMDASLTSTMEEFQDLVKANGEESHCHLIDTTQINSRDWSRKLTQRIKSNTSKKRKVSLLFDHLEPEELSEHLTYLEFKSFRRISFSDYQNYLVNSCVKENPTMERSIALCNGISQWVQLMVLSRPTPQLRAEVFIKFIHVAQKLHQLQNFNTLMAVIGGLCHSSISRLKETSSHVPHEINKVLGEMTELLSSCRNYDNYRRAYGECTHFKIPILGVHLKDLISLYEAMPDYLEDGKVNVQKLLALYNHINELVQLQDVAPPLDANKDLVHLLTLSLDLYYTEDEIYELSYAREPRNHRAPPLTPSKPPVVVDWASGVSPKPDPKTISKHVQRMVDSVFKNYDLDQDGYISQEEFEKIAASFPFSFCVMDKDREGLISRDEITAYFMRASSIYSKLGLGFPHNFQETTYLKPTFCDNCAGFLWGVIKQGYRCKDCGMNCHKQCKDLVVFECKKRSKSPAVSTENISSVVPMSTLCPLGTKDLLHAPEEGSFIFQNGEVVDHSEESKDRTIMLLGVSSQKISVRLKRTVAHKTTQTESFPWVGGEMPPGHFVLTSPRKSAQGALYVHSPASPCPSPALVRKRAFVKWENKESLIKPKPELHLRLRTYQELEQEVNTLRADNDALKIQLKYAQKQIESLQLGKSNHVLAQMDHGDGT

Chain of Protein kinase C delta type (P28867 whole entry, the tested form may be a part): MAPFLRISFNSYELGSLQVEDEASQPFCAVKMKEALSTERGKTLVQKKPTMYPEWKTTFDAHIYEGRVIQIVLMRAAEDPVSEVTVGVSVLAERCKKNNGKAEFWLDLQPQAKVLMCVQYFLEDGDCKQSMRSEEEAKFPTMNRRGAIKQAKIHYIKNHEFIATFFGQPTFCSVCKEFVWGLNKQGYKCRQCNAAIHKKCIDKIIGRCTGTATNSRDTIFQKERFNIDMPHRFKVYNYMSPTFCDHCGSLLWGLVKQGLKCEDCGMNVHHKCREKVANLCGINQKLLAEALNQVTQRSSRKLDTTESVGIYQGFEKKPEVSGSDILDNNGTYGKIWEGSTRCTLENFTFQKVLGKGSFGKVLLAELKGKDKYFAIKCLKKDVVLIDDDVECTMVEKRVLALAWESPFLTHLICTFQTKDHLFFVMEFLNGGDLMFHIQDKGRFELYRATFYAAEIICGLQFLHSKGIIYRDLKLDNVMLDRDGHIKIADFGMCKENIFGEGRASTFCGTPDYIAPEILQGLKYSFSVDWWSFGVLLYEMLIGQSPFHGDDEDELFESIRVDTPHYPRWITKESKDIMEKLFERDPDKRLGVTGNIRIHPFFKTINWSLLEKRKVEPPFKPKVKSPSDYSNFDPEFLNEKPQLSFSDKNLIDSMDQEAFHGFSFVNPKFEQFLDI

SMILES | Ki [1] [nM] | Ki [2] [nM]
CCCCCCCCC#Cc1ccc2c(c1OC)C[C@@H](CO)NC(=O)[C@H](C(C)C)N2C | 35.1 | 13.9
CCCCCCCCC#Cc1ccc2c(c1)C[C@@H](CO)NC(=O)[C@H](C(C)C)N2C | 10.7 | 6.15
CC(C)[C@H]1C(=O)N[C@H](CO)Cc2c[nH]c3cccc(c23)N1C [INDOLACTUM] | – | 2.54
CCCCCCCCc1ccc2c3c(c[nH]c13)C[C@@H](CO)NC(=O)[C@H](C(C)C)N2C | 0.1 | 0.85
